The target in test [1] is T1, Histone-lysine N-methyltransferase NSD2 (Homo sapiens, UniProt O96028).
T1 sequence (O96028 whole entry): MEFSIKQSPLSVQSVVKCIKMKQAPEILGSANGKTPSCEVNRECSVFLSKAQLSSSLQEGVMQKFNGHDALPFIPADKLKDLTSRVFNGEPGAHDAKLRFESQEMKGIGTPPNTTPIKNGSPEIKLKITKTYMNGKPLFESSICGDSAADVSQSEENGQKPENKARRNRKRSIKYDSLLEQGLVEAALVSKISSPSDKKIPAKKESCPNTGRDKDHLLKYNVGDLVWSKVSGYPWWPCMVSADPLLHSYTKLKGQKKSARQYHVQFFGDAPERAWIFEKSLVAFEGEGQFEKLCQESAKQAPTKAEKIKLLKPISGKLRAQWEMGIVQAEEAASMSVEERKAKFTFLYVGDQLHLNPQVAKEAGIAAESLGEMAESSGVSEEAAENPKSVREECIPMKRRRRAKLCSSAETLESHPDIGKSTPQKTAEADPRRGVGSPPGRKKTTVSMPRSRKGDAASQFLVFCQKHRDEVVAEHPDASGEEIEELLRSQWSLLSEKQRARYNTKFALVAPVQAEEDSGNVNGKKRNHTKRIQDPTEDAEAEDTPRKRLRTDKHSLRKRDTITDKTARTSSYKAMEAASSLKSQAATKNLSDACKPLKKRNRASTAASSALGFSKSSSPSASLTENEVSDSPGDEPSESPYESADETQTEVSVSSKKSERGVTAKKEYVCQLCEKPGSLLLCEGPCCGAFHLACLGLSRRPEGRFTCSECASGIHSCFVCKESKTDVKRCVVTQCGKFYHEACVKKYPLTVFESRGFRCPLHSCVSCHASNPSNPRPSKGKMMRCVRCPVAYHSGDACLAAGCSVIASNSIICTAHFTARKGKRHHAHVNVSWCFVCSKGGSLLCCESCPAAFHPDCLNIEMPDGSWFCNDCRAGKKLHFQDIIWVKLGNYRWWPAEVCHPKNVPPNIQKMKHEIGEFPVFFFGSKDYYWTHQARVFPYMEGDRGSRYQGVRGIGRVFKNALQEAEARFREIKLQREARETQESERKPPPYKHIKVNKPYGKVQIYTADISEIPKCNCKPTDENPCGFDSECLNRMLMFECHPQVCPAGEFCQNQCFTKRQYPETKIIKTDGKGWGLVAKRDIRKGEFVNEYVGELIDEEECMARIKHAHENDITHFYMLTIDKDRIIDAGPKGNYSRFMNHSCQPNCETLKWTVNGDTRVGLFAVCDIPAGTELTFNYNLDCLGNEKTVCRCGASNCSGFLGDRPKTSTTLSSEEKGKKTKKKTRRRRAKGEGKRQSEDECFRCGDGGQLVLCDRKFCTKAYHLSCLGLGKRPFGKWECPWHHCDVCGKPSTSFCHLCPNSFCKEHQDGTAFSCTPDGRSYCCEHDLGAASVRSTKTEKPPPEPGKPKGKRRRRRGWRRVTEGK
It counts as biochemical.

Test [2] addresses T2, Endoribonuclease toxin MazF (Escherichia coli K-12, UniProt P0AE70).
T2 sequence (P0AE70 whole entry): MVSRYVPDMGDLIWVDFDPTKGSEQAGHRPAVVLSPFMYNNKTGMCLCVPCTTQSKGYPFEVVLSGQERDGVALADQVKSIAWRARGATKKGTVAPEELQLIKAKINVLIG
In words: MazF toxin RNase activators, dose response, biochemical, fluorescence, single-stranded RNA substrate, uHTS hits (AID 588481). Type of test: functional.

For test [3], the target named is T3, Zinc finger protein mex-5 (Caenorhabditis elegans, UniProt Q9XUB2).
T3 sequence (Q9XUB2 whole entry): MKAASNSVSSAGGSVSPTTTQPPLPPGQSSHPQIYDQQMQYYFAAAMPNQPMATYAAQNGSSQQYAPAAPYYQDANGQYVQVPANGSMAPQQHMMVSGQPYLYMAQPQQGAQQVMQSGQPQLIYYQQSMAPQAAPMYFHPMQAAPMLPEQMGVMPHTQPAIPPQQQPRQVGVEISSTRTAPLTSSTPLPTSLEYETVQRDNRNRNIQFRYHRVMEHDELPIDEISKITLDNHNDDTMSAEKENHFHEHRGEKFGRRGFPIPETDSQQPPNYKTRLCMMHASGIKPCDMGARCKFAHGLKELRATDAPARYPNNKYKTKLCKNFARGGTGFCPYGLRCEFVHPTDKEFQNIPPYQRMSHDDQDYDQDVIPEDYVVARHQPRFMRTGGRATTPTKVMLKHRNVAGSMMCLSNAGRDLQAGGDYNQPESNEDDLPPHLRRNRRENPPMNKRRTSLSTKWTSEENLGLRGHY
In words: MEX-5/TCR-2 RNA interaction inhibitors, dose response, biochemical, C. elegans, fluorescence polarization (AID 1960).

The target in test [4] is Induced myeloid leukemia cell differentiation protein Mcl-1 (Homo sapiens, UniProt Q07820). Type of test: functional.
Sequence of Induced myeloid leukemia cell differentiation protein Mcl-1 (Q07820 whole entry): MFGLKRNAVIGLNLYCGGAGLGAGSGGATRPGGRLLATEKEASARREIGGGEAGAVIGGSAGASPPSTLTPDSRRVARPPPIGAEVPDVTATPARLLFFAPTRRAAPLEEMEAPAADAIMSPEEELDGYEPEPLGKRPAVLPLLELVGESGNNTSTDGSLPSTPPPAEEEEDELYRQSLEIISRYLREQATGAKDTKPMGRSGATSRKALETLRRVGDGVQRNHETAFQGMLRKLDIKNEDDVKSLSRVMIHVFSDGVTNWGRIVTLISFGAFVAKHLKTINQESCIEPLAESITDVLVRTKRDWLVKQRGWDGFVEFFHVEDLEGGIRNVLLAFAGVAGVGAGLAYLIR
Test [5] in a line: enhancers of respiration in Yfh1-depleted yeast, dose response, Friedreich's ataxia, plus single-dose screen (AID 1465).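 Also: yeast depleted of Yfh1p frataxin homolog grown on glycerol needing respiration; WST-1 tetrazolium dye reduction as measure of cellular dehydrogenase metabolic activity.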 It counts as functional.

Calls of active or inactive are those of the source.

Broadly, the AC50 is the midpoint of the concentration-response curve, whichever way the signal moves. For `COC(=O)c1ccc(-c2ccc(C(c3c(C)[nH][nH]c3=O)c3c(C)[nH][nH]c3=O)o2)cc1`, in test [1], the concentration at half-maximal activity (AC50) was 17.8 µM (active).

A word on the EC50: it is the concentration at which the effect is half-maximal. What is called IC50 is the concentration at which inhibition is half-maximal. On to `Oc1ccc(/C=N/NC(=S)Nc2cccnc2)c(O)c1O`, for which the results for the EC50 in test [2], in test [3] and in test [5] were > 99 µM (inactive), 0.086 µM (active) and > 100 µM (active), respectively. In test [4], the half-inhibitory concentration (IC50) was 19.5 µM (active).

The record behind these values is ChEMBL document CHEMBL1201862, “PubChem BioAssay data set” (2004).
